For two substances, MIC results are on record in publication PMC9248904, “Genomic and Chemical Decryption of the Bacteroidetes Phylum for Its Potential to Biosynthesize Natural Products” (Microbiology Spectrum, 2022).

Assay [1] has as its system P. aeruginosa PAO750. Format: cell-based, Pseudomonas aeruginosa. Conditions: broth microdilution, 96-well, EUCAST, OD600, Iron -, at least triplicate. As for the experimental part:
(§1) The MIC was determined by broth microdilution method in 96-well plates with 100 µL assay volume per well following EUCAST instructions ([116], [117]) for E. coli ATCC 35218, E. coli ATCC 25922 ΔTolC, E. coli MG1655, Pseudomonas aeruginosa ATCC 27853, P. aeruginosa PAO750, Klebsiella pneumoniae ATCC 13883, Moraxella catarrhalis ATCC 25238, Acinetobacter baumannii ATCC 19606, Bacillus subtilis DSM 10, Staphylococcus aureus ATCC 25923, and Micrococcus luteus DSM 20030. Listeria monocytogenes DSM 20600 (1 day of incubation at 37°C) and Mycobacterium smegmatis ATCC 607 (2 days of incubation at 37°C) were grown in BHI broth supplemented with 1% (vol/vol) Tween 80. Candida albicans FH2173 was grown in MHIIB over 2 days of incubation at 37°C (pre-culture 2 days at 28°C). Approximate inoculation cell density for all strains was 500,000 CFU/mL, except 1,000,000 CFU/mL were used for M. smegmatis and C. albicans. For all fungal screenings 100,000 spores/mL were used and incubated at 37°C for Aspergillus flavus ATCC 9170 (MHIIB) and 25°C for Z. tritici MUCL45407 (4 g/L yeast extract, 4 g/L malt extract, 4 g/L sucrose) and Fusarium oxysporum ATCC 7601 (potato dextrose broth, Sigma). Growth inhibition was detected by optical density (600 nm) or for M. luteus, L. monocytogenes, C. albicans, M. smegmatis, and all fungi by quantification of free ATP using BacTiter-Glo after 24 to 48 h (72 h for Z. tritici). All MIC assays were performed at least in triplicate. FE(III)-citrate was added at molar ratios of 1:1 to samples in DMSO to test compounds in their iron bound conformation.

Assay [2] relates to Acinetobacter baumannii ATCC 19606. Format: cell-based. As to conditions: A. baumannii ATCC 19606; broth microdilution, 96-well, EUCAST; OD600; Iron -; at least triplicate. Here is the method:
as §1

Assay [3] relates to Bacillus subtilis DSM 10. Format: cell-based. Conditions: B. subtilis DSM 10; broth microdilution, 96-well, EUCAST; OD600; Iron -; at least triplicate. Here is the method:
as §1

Assay [4] concerns Pseudomonas aeruginosa ATCC 27853. Format: cell-based. Conditions: P. aeruginosa ATCC 27853; broth microdilution, 96-well, EUCAST; OD600; Iron -; at least triplicate. Here is the method:
as §1

Assay [5] has as its system Klebsiella pneumoniae ATCC 13883. Format: cell-based. Conditions: K. pneumoniae ATCC 13883; broth microdilution, 96-well, EUCAST; OD600; Iron -; at least triplicate. Here is the method: as §1
For assay [6], the system named is Micrococcus luteus DSM 20030. Format: cell-based. Conditions: M. luteus DSM 20030; broth microdilution, 96-well; free ATP (BacTiter-Glo); Iron -; at least triplicate. As for the experimental part:
as §1

Assay [7] deals with Staphylococcus aureus ATCC 25923. Format: cell-based. As to conditions: S. aureus ATCC 25923; broth microdilution, 96-well, EUCAST; OD600; Iron -; at least triplicate. As for the experimental part:
as §1

Assay [8] deals with Moraxella catarrhalis ATCC 25238. Format: cell-based. As to conditions: M. catarrhalis ATCC 25238; broth microdilution, 96-well, EUCAST; OD600; Iron -; at least triplicate. Here is the method:
as §1

Assay [9] relates to Listeria monocytogenes DSM 20600. Format: cell-based. As to conditions: L. monocytogenes DSM 20600; BHI broth + 1% Tween 80, 1 day 37°C; BacTiter-Glo; Iron -; at least triplicate. Here is the method:
as §1

Assay [10] has as its system Mycobacterium smegmatis ATCC 607. As to the kind of experiment: microbe, parasite or virus in culture. Format: cell-based. Conditions: M. smegmatis ATCC 607; BHI broth + 1% Tween 80, 2 days 37°C; BacTiter-Glo; Iron -; at least triplicate. Here is the method:
as §1

For assay [11], the system named is E. coli ATCC 25922 ΔTolC. Format: cell-based, Escherichia coli. Conditions: broth microdilution, 96-well, EUCAST, OD600, Iron -, at least triplicate. As for the experimental part: as §1
Assay [12] relates to E. coli MG1655. Format: cell-based, Escherichia coli. Conditions: broth microdilution, 96-well, EUCAST, OD600, Iron -, at least triplicate. Here is the method:
as §1

Assay [13] relates to E. coli ATCC 35218. Format: cell-based, Escherichia coli. Conditions: E. coli ATCC 35218; broth microdilution, 96-well, EUCAST; OD600; chitinopeptins without iron (Iron -); at least triplicate. Here is the method:
as §1

Rifamicin [reference compound]: the MIC in assay [1] is recorded as 16 µg/mL; in assay [2], 2 µg/mL; in [3], no more than 0.031 µg/mL; in [4] it was 32 µg/mL; in [5], 8 µg/mL; in assay [6], no more than 0.031 µg/mL. The MIC in assay [7] is no more than 0.031 µg/mL; in [8], no more than 0.031 µg/mL; in assay [9], no more than 0.031 µg/mL; in assay [10], 8 µg/mL; in assay [11], 2 µg/mL; in assay [12], 16 µg/mL. In addition, in assay [13], the MIC is 4 µg/mL.
For the substance Gentamycin [reference compound], the MIC is on record as 0.125 µg/mL in assay [1]; 16 µg/mL in assay [2]; no more than 0.031 µg/mL in assay [3]; 1 µg/mL in assay [4]; no more than 0.031 µg/mL in [5]; no more than 0.031 µg/mL in assay [6]. The MIC in assay [7] is given as 0.063 µg/mL; in assay [8], 0.125 µg/mL; in assay [9], no more than 0.031 µg/mL; in assay [11] it was 0.25 µg/mL; in [12] it was 0.5 µg/mL; in assay [13], 0.125 µg/mL.
